Results: patent US11242406B2, “Methods for the treatment of a cancer or fibrotic disorder associated with MENA or MENA(INV) by administering a map kinase inhibitor” (METASTAT, INC., priority 2016, dated 2022)

Tests used:
[1] = system: MVD7-MENA^INV cells; assay: Fibronectin fibrillogenesis assay; assay type: cell-based, mouse; details: for MENA-dependent fibronectin fibrillogenesis phenotype compared to the MENA-null control: FIG. 8
Description: MENA kinase inhibitors reversed MENA-dependent fibrillogenesis. The ability of the various MENA kinase inhibitors described above to reverse MENA-dependent fibrillogenesis was evaluated in fibronectin fibrillogenesis assays using the […] cell line. Cells were pretreated with MENA kinase inhibitor for 1 hour at the concentrations indicated in FIG. 8 and cultured in medium containing fibronectin-depleted serum supplemented with labeled fibronectin. After 4 hours, fibronectin fibril formation was evaluated by quantitative immunostaining using imageJ software to measure abundance and distribution of fibrillar fibronectin (anova, n=3). The results are plotted relative to control MVD7-GFP cells in FIG. 8.

[2] = system: MDA-MB-231-MENA^INV cells; assay: Wound healing cell migration assay; assay type: cell-based, human; details: 18 hours, fully supplemented medium, without drug 50%
Description: MENA kinase inhibitors block MENA-dependent cell migration in a wound-healing assay. The ability of the various MENA kinase inhibitors described above to block MENA-dependent cell migration of MDA-MB-231-MENA^INV cells was assayed using the CySelect™ wound healing assay kit (Cell Biolabs, Inc., San Diego, Calif.). Following the manufacturer's protocol, cells were cultured in fibronectin coated wells until a monolayer formed around the wound insert. The insert was then removed and cells were cultured in the presence of inhibitor at the indicated concentrations in FIG. 9 in fully supplemented medium. After 18 hours the cells were fixed, stained, and evaluated for their capacity to close the wound generated by the insert by fluorescence microscopy.

[3] = system: MDA-MB-231-MENA^INV cells; assay: Matrigel invasion chamber assay (cell invasion and chemotaxis towards EGF); assay type: cell-based, human; details: 18 hours
Description: Addition of MENA kinase inhibitors to cells grown in fully supplemented medium reduce the capability of the breast cancer cell line to migrate in the wound healing assay (panels (c)-(h)). Panel (a) represents the wound size at the start of treatment. Cells that were cultured overnight in fully supplemented medium without drug (panel (b)) were able to close 50% of the wound. […] The ability of the various MENA kinase inhibitors described above to inhibit […] tumor cell invasion was tested using the BioCoatTM Matrigel® invasion chamber assay (Corning, Tewksbury, Mass.). […] Inserts were transferred to wells containing basal media (negative control) and the chemoattractant EGF with or without each of the MENA kinase inhibitors. After 18 hours cells that invaded the lower cell surface of the membrane were fixed, stained and evaluated by quantitative immunostaining using imageJ software.

[4] = system: MDA-MB-231-MENA^INV cells; assay: Boyden Chamber cell migration and chemotaxis assay; assay type: cell-based, human; details: 18 hours
Description: MENA kinase inhibitors reverse MENA-dependent cell migration and chemotaxis in the Boyden Chamber Assay. […] The fibronectin coated upper chamber were then transferred to wells containing basal media (negative controls) and wells containing basal media, EGF, and MENA kinase inhibitors at the concentrations indicated in FIG. 11. All treatment conditions except the basal negative control used EGF as the chemoattractant. After 18 hours, cells that migrated through the pores toward the chemotattractant were evaluated by quantitative immunostaining using imageJ software as described above. Data were analyzed using anova (n=2) and reported relative to the EGF stimulated cells absent any inhibitor positive control (0) as mean with error of the mean in FIG. 11.

[5] = biological target: MAPKAPK2/MK2 (Homo sapiens, UniProt P49137); details: cited from earlier work
Sequence of MAPKAPK2/MK2 (P49137 whole entry): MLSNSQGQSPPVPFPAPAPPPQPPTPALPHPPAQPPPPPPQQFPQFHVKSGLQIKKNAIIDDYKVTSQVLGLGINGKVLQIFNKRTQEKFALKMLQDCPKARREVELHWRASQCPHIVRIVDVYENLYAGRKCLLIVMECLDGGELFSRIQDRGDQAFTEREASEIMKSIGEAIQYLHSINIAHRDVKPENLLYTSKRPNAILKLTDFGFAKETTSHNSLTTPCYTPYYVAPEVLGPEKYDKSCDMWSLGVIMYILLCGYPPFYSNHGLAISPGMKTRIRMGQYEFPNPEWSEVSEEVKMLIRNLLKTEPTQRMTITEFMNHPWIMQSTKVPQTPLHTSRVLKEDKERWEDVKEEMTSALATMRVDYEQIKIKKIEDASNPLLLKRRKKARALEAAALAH

[6] = system: HSP27 Ser82 phosphorylation site; assay: Mass spec phosphoproteomic analysis of MAPKAPK2/MK2-dependent phosphorylation; assay type: cell-based; details: doxorubicin treated cells
From the text: (§1) The present invention is also based in part on the discovery that the peptide sequence proximal to the serine 125 (Ser125) phosphorylation site of MENA and the equivalent serine 144 (Ser144) phosphorylation site of MENA^INV are potent substrates of the MAPKAPK2/MK2 kinase. Replacement of Ser125 in MENA and or Ser144 in MENA^INV with a non-phosphorylable amino acid changes the peptide substrates to effective peptide inhibitors of the MAPKAPK2/MK2 kinase. […] In doxorubicin treated cells the MENA Ser125 phosphorylation site becomes more heavily phosphorylated (˜8× increase) than the HSP27 Ser82 phosphorylation site (˜2.5× increase). The Ser125/Ser144 serine residue was replaced with a non-phosphorylatable glycine residue to convert the MENA/MENA^INV substrate peptides into effective MENA kinase inhibitors.

[7] = system: MENA Ser125 phosphorylation site; assay: as above; assay type: cell-based; details: doxorubicin treated cells
From the text: as §1

[8] = system: MENA kinase-dependent phosphorylation of MENA^INV at Ser144; assay: Quantitative immunoblot of pSer125/pSer144 MENA/MENA^INV in TNF-alpha stimulated MVD7-MENA^INV cells; assay type: cell-based, mouse; details: FIG. 2
Description: Anti-phospho-MENA antibodies specific for the Ser125/Ser144 phosphorylation site in MENA/MENA^INV were produced in animals injected with peptide containing mouse MENA residues 117-133 phosphorylated at Ser125 and conjugated to KLH (Covance Research Products, Denver, Pa.). Purification of pSer125MENA antibody was performed according to the protocol of Archuleta, et al. (Archuleta, Stutzke, Nixon, & Browning, Optimized protocol to make phospho-specific antibodies that work. Methods Mol. Biol. 717:69-88, 2011). Peptides used for purification (phosphorylated peptide: Ac-CKKGPTLPRQN(pS)QLPAQVQN (SEQ ID NO: 32) and dephosphorylated: […] (SEQ ID NO:32)) were prepared by Covance Research Products (BioLegend, San Diego, Calif.) and ThermoScientific, Grand Island, N.Y., respectively. Peptides were coupled to SulfoLink Coupling Resin Column (ThermoScientific) according to manufacturer's instructions. Sera were sequentially passed over column containing dephosphorylated peptide, and then over the column containing phosphorylated peptide. Antibodies bound to second column were eluted using IgG Elution buffer (ThermoScientific).
Phosphorylation of MENA and or MENA isoforms is inhibited by MENA kinase inhibitors from the Ras-Raf-MEK-MAPK/ERK and PI3K-AKT/mTOR pathways. […] Phosphorylation was measured by quantitative immunoblot assays using MENA antibodies specific for the phosphorylation of MENA/MENA^INV at Ser125/Ser144 Cells were stimulated and the MENA kinase was activated through treatment with 10 ng/ml TNF-alpha. […]

## KKKALHRQLGVAA (MAPKAPK2/MK2 inhibitor derived from HSP25)
[1]
  MENA-dependent fibronectin fibrillogenesis phenotype compared to the MENA-null control: significantly reduced
[1]; increasing concentrations, 100 and 300 uM, 4 hours
  MENA-dependent fibronectin fibrillogenesis phenotype: Dose-dependent reductions
[2]; 300 uM
  wound closure: 15%
[3]; 100 uM
  relative number of cells that invade through Matrigel insert membranes towards EGF: significantly reduce
[3]; 300 uM
  relative number of cells that invade through Matrigel insert membranes towards EGF: significantly reduce
[4]; 100 uM
  MENA-dependent migration/chemotaxis phenotype (cells migrated through fibronectin coated membrane towards EGF): significantly reverse
[4]; 300 uM
  MENA-dependent migration/chemotaxis phenotype (cells migrated through fibronectin coated membrane towards EGF): significantly reverse
[5]
  inhibition of MAPKAPK2/MK2: potent inhibitor

## COc1cccc2c1C(=O)c1c(O)c3c(c(O)c1C2=O)C[C@@](O)(C(=O)CO)C[C@@H]3O[C@H]1C[C@H](N)[C@H](O)[C@H](C)O1 [doxorubicin]
[6]
  increase in phosphorylation of HSP27 Ser82 site: ~2.5 ×
[7]
  increase in phosphorylation of MENA Ser125 site: ~8 ×

## O=C(NOC[C@H](O)CO)c1ccc(F)c(F)c1Nc1ccc(I)cc1F [PD0325901, N-[(2R)-2,3-dihydroxypropoxy]-3,4-difluoro-2-[(2-fluoro-4-iodophenyl)amino]-benzamide]
[8]; inhibitor at 1 uM
  level of phosphorylated MENA^INV: significantly reduce
[1]
  MENA-dependent fibronectin fibrillogenesis phenotype compared to the MENA-null control: significantly reduced
[2]; 1 uM
  wound closure: 15%
[3]; 1 uM
  relative number of cells that invade through Matrigel insert membranes towards EGF: significantly reduce
[4]; 1 uM
  MENA-dependent migration/chemotaxis phenotype (cells migrated through fibronectin coated membrane towards EGF): significantly reverse

## CC(C)(C)Cn1c(N)nc2ccc(-c3[nH]c(C(C)(C)C)nc3-c3ccc(F)cc3)nc21.CS(=O)(=O)O [LY2228820, 5-[2-tert-butyl-4-(4-fluorophenyl)-1H-imidazol-5-yl]-3-(2,2-dimethylpropyl)imidazo[4,5-b]pyridin-2-amine; methanesulfonic acid]
[8]; inhibitor at 1 uM
  level of phosphorylated MENA^INV: significantly reduce
[2]; 10 uM
  wound closure: 20%
[3]; 10 uM
  relative number of cells that invade through Matrigel insert membranes towards EGF: significantly reduce
[4]; 10 uM
  MENA-dependent migration/chemotaxis phenotype (cells migrated through fibronectin coated membrane towards EGF): significantly reverse

## Cc1ccc(-c2ccc3c(ccc4sc5c(c43)NC[C@@H](C)NC5=O)n2)cn1.O [PF-3644022, (10R)-9,10,11,12-tetrahydro-10-methyl-3-(6-methyl-3-pyridinyl)-8H-[1,4]diazepino[5′,6′:4,5]thieno[3,2-f]quinolin-8-one hydrate]
[8]; inhibitor at 10 uM
  level of phosphorylated MENA^INV: significantly reduce
[2]; 10 uM
  wound closure: 10%
[3]; 10 uM
  relative number of cells that invade through Matrigel insert membranes towards EGF: significantly reduce
[4]; 10 uM
  MENA-dependent migration/chemotaxis phenotype (cells migrated through fibronectin coated membrane towards EGF): significantly reverse

## O=c1cc(N2CCOCC2)oc2c(-c3ccccc3)cccc12 [LY294002, 2-morpholin-4-yl-8-phenylchromen-4-one]
[1]
  MENA-dependent fibronectin fibrillogenesis phenotype compared to the MENA-null control: significantly reduced
[2]; 10 uM
  wound closure: 15%
[3]; 10 uM
  relative number of cells that invade through Matrigel insert membranes towards EGF: significantly reduce
[4]; 10 uM
  MENA-dependent migration/chemotaxis phenotype (cells migrated through fibronectin coated membrane towards EGF): significantly reverse
